Measured values taken from US9951389B2, “Diagnostic markers for treating cell proliferative disorders with telomerase inhibitors” (Geron Corporation, priority 2012, dated 2018).
Where two headings read alike, the source gives them in different places. [nps] = N3'→P5' thiophosphoramidate linkage

Legend:
[1] = test system: animal tumor models, including ovarian and lung, both small cell and non-small cell; conditions: cited from earlier work
[2] = test system: epidermoid carcinoma, breast epithelium, renal carcinoma, renal adenocarcinoma, pancreatic, brain, colon, prostate, leukemia, lymphoma, myeloma, epidermal …; conditions: administered alone, in vitro; cited from earlier work
[3] = test system: advanced stage non-small cell lung cancer; test: Imetelstat NSC Lung Cancer Phase II (CP14B-012) Study, progression-free survival analysis by tumor telomere length subgroup; format: in vivo, human; conditions: for responsiveness (progression-free survival) of patients with short telomeres vs medium-long telomeres: telomere length subgroups by qPCR
Source text: The purpose of the NSC Phase II (CP14B-012) Study was to evaluate the efficacy and safety of imetelstat (GRN163L) as maintenance therapy for patients with advanced stage non-small cell lung cancer who have not progressed after 4 cycles of platinum based therapy. Participants were randomized in a 2:1 ratio to imetelstat plus standard of care versus standard of care alone. Participants who received bevacizumab with their induction chemotherapy continued to receive bevacizumab in this study.
The primary outcome measures were progression-free survival, defined as the time from randomization to documented disease progression or death, whichever occurred earlier, as determined by the investigator's assessment according to RECIST (Response Evaluation Criteria in Solid Tumors). The secondary outcome measures were objective response, time to all-cause mortality, and safety and tolerability (assessed by the incidence, nature, and severity of adverse events, laboratory abnormalities, and vital signs.
The patients were divided into two arms. In the experimental arm, patients received Imetelstat plus the standard of care (Bevacizumab or observation). Specifically, 9.4 mg/kg of Imetelstat (GRN163L) was given to patients over a 2 hour IV infusion on Day 1 and Day 8 of each 21 day cycle until disease progression. If administered, Bevacizumab was given on Day 1 of each 21-day cycle, with dosage and duration according to the FDA-approved Bevacizumab package insert.
In the control arm, patients received Bevacizumab or observation. If administered, Bevacizumab was given on Day 1 of each 21-day cycle, with dosage and duration according to the FDA-approved Bevacizumab package insert.
Samples were obtained from 61 of the 116 patients enrolled in the NSC Phase II (CP14B-012) Study described above. […] Each assay produced data for between 7 and 14545 foci from six regions (‘fields’) on a slide. The area and fluorescent intensity were recorded for each of the foci.
The IN Cell developer Toolbox 1.9 (GE Corp.) was utilized to quantitate the average telomere length from cells obtained from biological samples and subjected to telo-FISH. This software was used to draw lines around cell nuclei based on the location of the DAPI stain, and around cell telomeres based on the location of the telomere-specific fluorescence. Once each nucleus and telomere was encircled, the software calculated the intensity and the area of each individual telomere in the cells and determined the average telomere length for the cells derived from the biological sample according to Equation 1: 1.376×log2(intensity)−6.215×√(area) [Equation 1]. Results
This Example followed all of the procedures of Example 2 with the following changes to the qPCR protocol.

Substance	therapeutic efficacy in animal tumor models [1]	inhibitory activity in cell culture [2]	progression-free survival hazard ratio (95% CI) [3]	progression-free survival hazard ratio (95% CI) ([3]; Telo-FISH quartile split, small intensity/area (15/59, 25.4%), Example 3, Imetelstat vs control)	progression-free survival median (95% CI) ([3]; Telo-FISH quartile split, small intensity/area (15/59, 25.4%, shortest telomeres), Example 3, Imetelstat arm)	progression-free survival median (95% CI) ([3]; medium-long telomere subgroup (34 of 52 samples, 65%), second qPCR protocol of Example 4, Imetelstat arm)	progression-free survival median (95% CI) ([3]; medium-long telomere subgroup (38 of 57 samples, 67%), qPCR of Example 2, Imetelstat arm)	progression-free survival hazard ratio (95% CI) ([3]; medium-long telomere subgroup (65%), second qPCR protocol of Example 4, Imetelstat vs control)	progression-free survival events/N ([3]; medium-long telomere subgroup (67%), qPCR of Example 2, Imetelstat arm)	progression-free survival median (95% CI) ([3]; short telomere subgroup (18 of 52 samples, 35%), second qPCR protocol of Example 4, Imetelstat arm)	progression-free survival median (95% CI) ([3]; short telomere subgroup (19 of 57 samples, 33%), qPCR of Example 2, Imetelstat 9.4 mg/kg IV Day 1 and 8 of 21 day cycle plus standard of care)	progression-free survival events/N ([3]; short telomere subgroup (33%), qPCR of Example 2, Imetelstat arm)	progression-free survival hazard ratio (95% CI) ([3]; short telomere subgroup (33%), qPCR of Example 2, Imetelstat vs control arm)	progression-free survival hazard ratio (95% CI) ([3]; short telomere subgroup (35%), second qPCR protocol of Example 4, Imetelstat vs control)	responsiveness (progression-free survival) of patients with short telomeres vs medium-long telomeres ([3]; Example 2)	responsiveness (progression-free survival) of patients with short telomeres vs medium-long telomeres ([3]; Example 4)
GRN163: oligonucleotide having sequence TAGGGTTAGACAA (SEQ ID NO:3) and N3′→P5′ thiophosphoramidate (NPS) linkages (all [nps], sugars by position and methylation of C not given here)	therapeutically effective	has shown inhibitory activity														
Imetelstat			0.83 (0.36, 1.89)	0.26 (0.06, 1.1)	4.7 (1.41, NA)	3.03 (1.58, 4.47)	2.8 (1.51, 4.18)	0.65 (0.27, 1.56)	21/26	1.91 (1.22, NA)	4.05 (1.25, NA)	8/11	0.32 (0.1, 1.02)	0.55 (0.17, 1.84)	significantly more responsive compared to controls	significantly more responsive compared to controls
